In patent US20140080813A1, “TRICYCLIC QUINOLINE AND QUINOXALINE DERIVATIVES” (ABBVIE DEUTSCHLAND GMBH & CO. KG, priority 2012, published 2014):
pEC50: −log10 of the molar value. Structures can show the parent of a compound that is named as a salt.

Biological target: T1, 5-HT2C receptor (Homo sapiens, UniProt P28335)
T1 construct: host or cells: U2OS
Assay: Functional activity: beta-arrestin2 recruitment to the 5-HT2C receptor in U2OS_HTR2C-β-Arrestin cells (DiscoverX)
Assay type: cell-based
Settings: 1.5 h incubation, chemiluminescent β-galactosidase complementation readout, read-out: Potency (EC50) in functional assay
Procedure: The functional activity of compounds of formula I was assayed by incubation with U2OS_HTR2C—β-Arrestin cells (DiscoverX, 93-0289C3) to induce beta-arrestin2 recruitment to the 5-HT2C receptor. The agonist-induced recruitment and proximity of the receptor and beta-arrestin2 leads to complementation and formation of active β-galactosidase. The enzyme complementation results in enzyme activity, which is measured following the termination of the agonist incubation using DiscoveRx's detection reagent, which contains a chemiluminescent substrate which produces a high intensity signal. Cells were plated and a medium-change to a 1% serum containing medium was performed 24 h later. The next day, test compounds were added and incubated for 1.5 h before addition of detection reagent.
The response produced was measured and compared with the response produced by 10 [mu]M 5-HT or the maximal effect induced by 5-HT (defined as 100%) to which it was expressed as a percentage response (relative efficacy). Dose response curves were constructed using Graphpad Prism (Graph Software Inc.) or using in house adapted software using a 4 parameter dose response model with variable slope (fit=(Bottom+(Top−Bottom)/(1+10̂((LogEC50−x)*HillSlope))res=(y-fit)). Results are compiled in the table below.

T1 sequence (P28335 33-458): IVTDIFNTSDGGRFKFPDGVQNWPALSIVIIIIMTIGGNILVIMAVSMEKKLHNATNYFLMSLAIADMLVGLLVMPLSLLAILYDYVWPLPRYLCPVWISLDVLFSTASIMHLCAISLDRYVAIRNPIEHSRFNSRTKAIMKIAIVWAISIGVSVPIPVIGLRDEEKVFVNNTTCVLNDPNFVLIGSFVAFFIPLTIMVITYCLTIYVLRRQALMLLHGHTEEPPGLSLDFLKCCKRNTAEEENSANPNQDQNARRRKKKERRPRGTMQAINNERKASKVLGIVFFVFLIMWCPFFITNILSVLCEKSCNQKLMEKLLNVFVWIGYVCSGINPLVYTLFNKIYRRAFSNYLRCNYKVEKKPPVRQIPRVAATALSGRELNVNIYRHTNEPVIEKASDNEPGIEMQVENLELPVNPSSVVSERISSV
T1 sequence (P32121 whole entry partner): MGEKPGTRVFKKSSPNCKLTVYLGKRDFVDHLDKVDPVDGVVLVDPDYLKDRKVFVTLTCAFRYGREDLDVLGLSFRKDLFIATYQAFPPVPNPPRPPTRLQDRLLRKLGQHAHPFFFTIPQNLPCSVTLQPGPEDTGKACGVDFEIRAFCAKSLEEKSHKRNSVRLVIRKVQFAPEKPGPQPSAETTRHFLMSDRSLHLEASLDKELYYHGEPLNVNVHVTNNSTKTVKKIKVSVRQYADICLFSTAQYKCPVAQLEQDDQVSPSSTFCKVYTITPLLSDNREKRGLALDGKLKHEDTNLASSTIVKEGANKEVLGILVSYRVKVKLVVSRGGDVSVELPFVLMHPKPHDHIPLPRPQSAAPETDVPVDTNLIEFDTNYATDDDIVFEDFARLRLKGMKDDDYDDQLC

Row | Compound | pEC50
1 | CC1CN2CCNCc3cccc(c32)C1(C)C (single isomer, unassigned) [Example 27] | 6.00 to 6.70
2 | c1cc2c3c(c1)C1(CCCC1)CCN3CCNC2 [Example 6, 1,2,3,4,6,7-Hexahydrospiro[[1,4]diazepino[6,7,1-ij]quinoline-8,1′-cyclopentane]] | 6.70 to 7.70
3 | c1cc2c3c(c1)N1CCC[C@@H]1CN3CCNC2 [Example 16, (R)-5,6,7,9,9a,10,11,12-Octahydro-4H-[1,4]diazepino[1,7,6-de]pyrrolo[1,2-a]quinoxaline bis(2,2,2-trifluoroacetate)] | 6.00 to 6.70
4 | CC1(C)CCN2CCNCc3cc(Cl)cc1c32 [Example 19, 10-Chloro-8,8-dimethyl-2,3,4,6,7,8-hexahydro-1H-[1,4]diazepino[6,7,1-ij]quinoline bis(2,2,2-trifluoroacetate)] | 6.70 to 7.70
5 | c1cc2c3c(c1)C1(CCC1)CCN3CCNC2 [Example 25, 1′,2′,3′,4′,6′,7′-Hexahydrospiro[cyclobutane-1,8′-[1,4]diazepino[6,7,1-ij]quinoline], hydrochloride] | 6.70 to 7.70
6 | Fc1ccc2c3c1C1(CCC1)CCN3CCNC2 [Example 26, 9′-Fluoro-1′,2′,3′,4′,6′,7′-hexahydrospiro[cyclobutane-1,8′-[1,4]diazepino[6,7,1-ij]quinoline], hydrochloride] | > 7.70

More lines, now with the values ahead:

Row | pEC50 | Compound
7 | 6.70 to 7.70 | CC1(C(F)(F)F)CCN2CCNCc3cccc1c32 (single isomer, unassigned) [Example 8, 8-Methyl-8-(trifluoromethyl)-2,3,4,6,7,8-hexahydro-1H-[1,4]diazepino[6,7,1-ij]quinoline]
8 | > 7.70 | CC1(C(F)(F)F)CCN2CCNCc3cccc1c32 (single isomer, unassigned) [Example 9, 8-Methyl-8-(trifluoromethyl)-2,3,4,6,7,8-hexahydro-1H-[1,4]diazepino[6,7,1-ij]quinoline]
9 | 6.70 to 7.70 | CC1CN2CCNCc3cccc(c32)C1(C)C (single isomer, unassigned) [Example 28]
10 | 6.70 to 7.70 | CC1(C)CCN2CCNCc3cccc1c32 [Example 1, 8,8-Dimethyl-2,3,4,6,7,8-hexahydro-1H-[1,4]diazepino[6,7,1-ij]quinoline]
11 | 6.70 to 7.70 | CC1(C)CCN2CCNCc3ccc(F)c1c32 [Example 22, 9-Fluoro-8,8-dimethyl-2,3,4,6,7,8-hexahydro-1H-[1,4]diazepino[6,7,1-ij]quinoline]
